Patent US10759994B2, “Luminogenic transition metal-based pyridyl complex and its use” (City University of Hong Kong, priority 2016, dated 2020)

Experiments:
[1] = SPANC reaction kinetics with BCN—OH by UV/Vis absorption spectroscopy; format: physicochemical; settings: for Second-order rate constants (k2): reaction with BCN—OH in MeOH at 298 K
Procedure: The reactivity of the iridium(III) and ruthenium(II) pyridyl complexes toward a strained alkyne derivative BCN—OH in MeOH at 298 K was studied. The second-order rate constants (k2) of the strain-promoted alkyne-nitrone cycloaddition (SPANC) reaction of complexes 1a-5b are shown in Tables 3 and 4, respectively. The k2 values of the iridium(III) complexes 1a, 2a and 3a and the ruthenium(II) complexes 1b, 2b, 3b, 4b, and 5b were determined to be 0.116-0.238 and 0.078-3.06 M^−1 s^−1, respectively, which are about 1.95-76.5 times that of the free ligand bpy-nitrone-Me (k2=0.040 M^−1 s^−1). This is attributed to the electron-withdrawing effects of the positively-charged metal centers. […] The accelerated reaction kinetics is assumed to originate from the presence of the more electron-withdrawing phenyl ring at the N-position of the nitrone moiety. Thus, the accelerated reaction kinetics render complexes 1a-5b highly advantageous bioorthogonal probes for biomolecules modified with a strained alkyne moiety.
More specifically, the SPANC reaction kinetics of complexes 1a 5b was studied by UV/Ms absorption spectroscopy. For the ligand bpy-nitrone-Me and the iridium(III) complexes 1a-3a, the k2 values were measured under pseudo first order conditions with a 25- to 100-fold excess of BCN—OH in MeOH at 298 K. The reaction process was followed by monitoring the exponential decay of the absorbance at 306-342 nm upon addition of BCN—OH. The final concentrations of the nitrone compounds were 10 μM and those of BCN—OH ranged from 0.25 to 1.0 mM. For the ruthenium(II) complexes 1b-5b, the k2 values were determined under pseudo first order conditions with a 50- to 200-fold excess of BCN—OH in MeOH at 298 K. The reaction process was monitored by following the exponential decay of the absorbance at 329 nm. The final concentrations of the complexes were 10 μM and those of BCN—OH ranged from 0.5 to 2.0 mM. The data were fitted to a single-exponential equation to give the observed rate constants (kobs), which were plotted against the concentrations of BCN—OH to obtain the k2 from the slope of the plots.

[2] = Emission enhancement upon reaction with BCN—OH; format: physicochemical; settings: complex 10 μM, BCN—OH 1 mM, aerated MeOH, 298 K
From the text: The strained alkyne BCN—OH has been selected as a model substrate. […] Namely, these findings confirm that complexes 1a-5b remained non-emissive or weakly emissive as long as the nitrone moiety is intact and resume their strongly emissive behavior upon cycloaddition reaction with strained alkynes.

[3] = biological target: T1, BCN-BSA (Bos taurus, UniProt P02769); test: Emission enhancement upon reaction with BCN-BSA; format: biochemical, Bovine; settings: complex 10 μM, protein 3.78 μM, aerated potassium phosphate buffer (50 mM, pH 7.4)/DMSO (99:1, v/v), 298 K
T1 construct: purchased Calbiochem
T1 sequence (P02769 25-607): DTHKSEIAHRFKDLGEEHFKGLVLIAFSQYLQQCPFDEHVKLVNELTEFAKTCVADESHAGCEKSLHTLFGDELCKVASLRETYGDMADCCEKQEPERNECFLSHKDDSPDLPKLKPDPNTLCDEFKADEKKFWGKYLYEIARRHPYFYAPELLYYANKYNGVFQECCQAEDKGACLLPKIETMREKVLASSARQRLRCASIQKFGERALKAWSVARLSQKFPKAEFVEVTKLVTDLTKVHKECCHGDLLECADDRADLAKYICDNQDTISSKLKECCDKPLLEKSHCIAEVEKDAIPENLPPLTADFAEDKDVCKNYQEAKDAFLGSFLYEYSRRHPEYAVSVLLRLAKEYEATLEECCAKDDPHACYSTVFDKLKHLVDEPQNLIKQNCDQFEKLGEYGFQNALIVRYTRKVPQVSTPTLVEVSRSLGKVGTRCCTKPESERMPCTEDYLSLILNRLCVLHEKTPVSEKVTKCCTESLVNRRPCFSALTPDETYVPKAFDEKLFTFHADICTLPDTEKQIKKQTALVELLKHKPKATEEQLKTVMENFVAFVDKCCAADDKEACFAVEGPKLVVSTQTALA

[4] = biological target: T2, unmodified BSA (Bos taurus, UniProt P02769); test: Emission enhancement with unmodified BSA (negative control); format: biochemical, Bovine; settings: complex 10 μM, protein 3.78 μM, aerated potassium phosphate buffer (50 mM, pH 7.4)/DMSO (99:1, v/v), 298 K
T2 construct: purchased Calbiochem
T2 sequence (P02769 25-607): as above

[5] = test system: HeLa cells; test: Cellular uptake by ICP-MS in HeLa cells; format: cell-based; settings: complex 40 μM, 12 h; for Uptake by BCN-C10-pretreated cells relative to untreated cells: HeLa cells, BCN-C10 pretreatment; for Amount of ruthenium associated with an average HeLa cell: 37° C., ICP-MS, untreated cells
Procedure: The cellular uptake of complexes 1a-5b was examined by ICP-MS. […] This finding should originate from intracellular esterases that convert the ester moieties of complex 3a into negatively charged carboxyl groups, enhancing its intracellular retention. […] Upon incubation of the untreated cells with the complexes, the amounts of ruthenium taken up by an average cell followed the order: 1 b<3b<5b<2b<4b, which seems to be in accordance with their lipophilic character. […] These findings indicate that the accumulation of the complexes 1 b-5b in BCN-C10-pretreated cells is not only associated with their lipophilicity, but also strongly affected by the bioorthogonal labeling of BCN-C10.
More specifically, for determining the cellular uptake of complexes 1a-3a, CHO-K1 cells were incubated in growth medium/DMSO (99:1, v/v) containing the iridium(III) complex (5 μM) in the dark at 37° C. under a 5% CO2 atmosphere for 1 h. The medium was removed, and the cell layer was thoroughly washed with PBS (1 mL×3). The cells were trypsinized by trypsin-EDTA (500 μL) and harvested with PBS. The resultant solution (2 mL) was heated with 65% HNO3 (2 mL) at 70° C. for 2 h, cooled to room temperature, and analyzed using an Elan 6100 DCR-ICP-MS (PerkinElmer SCIEX Instruments). For determining the cellular uptake of complexes 1 b 5b, HeLa cells with or without pretreatment of BCN-C10 were incubated in growth medium/DMSO (99:1, v/v) containing the ruthenium(II) complexes (40 μM) in the dark at 37° C. under a 5% CO2 atmosphere. After incubation for 12 h, the medium was removed and the cells were thoroughly washed with PBS (1 mL×3). The cells were typsinized by trypsin-EDTA (500 μL) and harvested with PBS. The resultant solution (1.5 mL) was heated with 65% HNO3 (1 mL) at 60° C. for 2 h, cooled to room temperature, and analyzed using an Elan 6100 DCR-ICP-MS.

[6] = test system: HeLa cells; format: cell-based; settings: complex 40 μM; for Cell viability with BCN-C10 pretreatment: BCN-C10 pretreatment (200 μM, 1 h); for Percentage of survival: 37° C., 6 h
From the text: The results particularly highlight the potential of the luminogenic transition metal-based polypyridyl complexes of the present invention for bioorthogonal labeling. […] Importantly, although the cellular uptake of complex 2b was substantially higher, it was much less cytotoxic than complex 4b toward the pretreated cells. […] The results also highlight the potential therapeutic use of intracellular bioorthogonal coupling reactions in activating the cytotoxicity of metallo drugs.
For determining the cytotoxicity of complexes 1 b 5b, HeLa cells were seeded in a 96-well flat-bottomed microplate (about 10,000 cells well^−1) in growth medium (100 μL) and incubated at 37° C. under a 5% CO2 atmosphere for 24 h. The cells were then incubated in either blank medium or growth medium/DMSO (99:1, v/v) (100 μL) containing BCN-C10 (200 μM) in the dark at 37° C. under a 5% CO2 atmosphere for 1 h. The medium was then removed, the cell layer was washed with PBS, and further incubated in growth medium/DMSO (99:1, v/v) (100 μL) containing the ruthenium(II) complexes (40 μM) in the dark at 37° C. under a 5% CO2 atmosphere for 6, 12, or 24 h. Wells containing untreated cells were used as blank control. The microplate was incubated at 37° C. under a 5% CO2 atmosphere for another 4 h. The growth medium was then removed, and DMSO (200 μL) was added to each well. The microplate was further incubated for 15 min. The absorbance of the solutions at 570 nm was measured with a SPECTRAmax 340 microplate reader.

CCCCNC(=O)c1ccnc(-c2cc(C(=O)NCCCC)ccn2)c1.CCCCNC(=O)c1ccnc(-c2cc(C(=O)NCCCC)ccn2)c1.Cc1ccnc(-c2cc(/C=[N+](/C)[O-])ccn2)c1.F[P-](F)(F)(F)(F)F.F[P-](F)(F)(F)(F)F.[Ru+2] [Complex 2b]
Second-order rate constants (k2) [1]: 0.086 ± 0.005 M⁻¹ s⁻¹ | Emission enhancement factors (I/Io) [2]: 7.1 | I/Io BCN-BSA [3]: 16.9 | I/Io BSA [4]: 1.1 | Uptake by BCN-C10-pretreated cells relative to untreated cells [5]: 8.89 fold | Amount of ruthenium associated with an average HeLa cell [5]: 1.32 ± 0.08 fmol | Cell viability with BCN-C10 pretreatment [6]: maintained good biocompatibility | Percentage of survival [6]: 94.83 ± 16.20%

Cc1ccnc(-c2cc(/C=[N+](/C)[O-])ccn2)c1.F[P-](F)(F)(F)(F)F.F[P-](F)(F)(F)(F)F.[Ru+2].c1ccc(-c2ccccn2)nc1.c1ccc(-c2ccccn2)nc1 [Complex 1b]
Second-order rate constants (k2) [1]: 0.084 ± 0.005 M⁻¹ s⁻¹ | Emission enhancement factors (I/Io) [2]: 9.5 | I/Io BCN-BSA [3]: 10.7 | I/Io BSA [4]: 1.1 | Amount of ruthenium associated with an average HeLa cell [5]: 0.31 ± 0.01 fmol | Percentage of survival [6]: 91.37 ± 5.73%

Cc1ccnc(-c2cc(/C=[N+](\[O-])c3ccccc3)ccn2)c1.F[P-](F)(F)(F)(F)F.F[P-](F)(F)(F)(F)F.[Ru+2].c1ccc(-c2ccccn2)nc1.c1ccc(-c2ccccn2)nc1 [Complex 5b]
k2 relative to those of the N-methyl nitrone complexes 1b, 2b, 3b and 4b ([1]; BCN—OH in MeOH at 298 K): at least 36 fold | Emission enhancement factors (I/Io) [2]: 3.9 | I/Io BCN-BSA [3]: 9.6 | I/Io BSA [4]: 1.1 | Uptake by BCN-C10-pretreated cells relative to untreated cells [5]: 2.48 fold | Amount of ruthenium associated with an average HeLa cell [5]: 1.09 ± 0.03 fmol | Cell viability with BCN-C10 pretreatment [6]: maintained good biocompatibility | Percentage of survival [6]: 92.78 ± 8.54%
